Results on one compound are retold here after patent US11331272B2, “Hyperstabilized liposomes increase targeting of mitotic cells” (TEMASEK LIFE SCIENCES LABORATORY LIMITED, priority 2017, dated 2022).

One series has as its system HCT116 xenografts. The series can be described thus: Efficacy study in HCT116 xenografted mice (tumor volume, complete responses, survival). It counts as in vivo, NCr Nude mice. Particulars: free 100 mg/kg, responders/treated mice. As to the method:
All animal experiments were approved by the Institutional Animal Care and Use Committee of Temasek Life Sciences Laboratory and National University of Singapore (NUS). Female NCr Nude mice (Ages 5-8 weeks) were purchased from (Singapore/InVivos) and subcutaneously xenografted with HCT116 cells. HCT116 cells were grown as described above in 600 cm^2 dishes (Corning) and each dish was used to graft 5 mice when confluence reached ˜80%.
(§1) Free BI 2536 (dissolved in 0.1 N HCl, saline) or the indicated liposomal BI 2536 formulations were administered by slow tail vein injection 7 days post grafting with HCT116. Tumor volumes were at least 150 mm^3 and calculated using length×width^2×0.5. All measurements were performed using vernier calipers and mice were weighed every other day. Mice were subcutaneously hydrated with 1 ml Hartmann's solution daily for 5 days post treatment to ensure that the mice were fully hydrated.

A short description of series [1]: Toxicity / body weight in HCT116 xenografted mice. Particulars: NCr Nude, mouse, in vivo, intravenous, tail vein injection, read-out: maximum tolerated dose. The protocol:
as §1

Series [2] can be described thus: Hexanol extraction of BI 2536 from salt solutions. It counts as physicochemical. Particulars: pH 3. The protocol: BI 2536 was first dissolved in ethanol and then coated onto 1.5 ml microfuge tubes by spin drying. BI 2636-coated tubes were then further dried overnight under high vacuum before resuspending in the indicated salt solutions to achieve a final concentration of 500 μM. To ensure complete dissolution of coated BI2536, tubes were briefly vortexed and subjected to bath sonication for 1 minute before being used for characterization.
BI 2536 from 1 ml of the indicated buffer was extracted with 100 μl 1-hexanol (Merck) by brief shaking for 1 hour. Hexanol and buffer layers were separated by brief centrifugation and 20 ul of the hexanol layer was analyzed for fluorescence intensity using the Tecan plate reader (Ex: 330 nm, Em: 370 nm).

Molecules are shown by their SMILES.

As to `CC[C@@H]1C(=O)N(C)c2cnc(Nc3ccc(C(=O)NC4CCN(C)CC4)cc3OC)nc2N1C1CCCC1` [Free Drug, BI 2536], in the series on HCT116 xenografts (doses at days 0 and 7, liposomal 340 mg/kg), the “Complete Responses, Double Dose” value is given as 0/8. Moreover, the “Complete Responses, Single Dose” value with HCT116 xenografts (single dose at day 0, liposomal 340 mg/kg) is on record as 0/10. For the same compound, the MTD in series [1] was 100 mg/kg. Besides, the “hexanol-extraction efficiency as anion concentration rises” value in series [2] (anions M, C, H) is reported as “decreased”; in series [2] (anions P, A), “increased”.
